Values belong to the molecule of their own block, whether it stands above or below them.
What was measured:
[1] = molecular target: recombinant human Vanin-1 (Homo sapiens (Human), UniProt O95497); assay: Vanin-1 recombinant enzyme activity inhibition assay; assay type: biochemical; details: Pantetheine 7-amino-4-trifluoromethylcoumarin substrate 45 μM, data at the 30th minute
Procedure: 1. Vanin-1 Recombinant Enzyme Activity Inhibition Assay
A certain mass of the compound was weighed precisely, and prepared with DMSO and reaction buffer (50 mM Tris base, 50 mM KCl, 1.6 mM cysteamine, 0.005% Brij 35, pH 8.0, prepared when using) to a maximum concentration of 10000 nM, then diluted in a 4-fold gradient, and prepared into 10 compound working solutions with different concentrations; • for the activity inhibition reaction of recombinant human Vanin-1 (Biorab, JN0618), 2.5 μL of compound working solution and 5 μL of recombinant human Vanin-1 protein were first mixed. […] Raw data at the 30th minute were collected for data processing and analysis, then the concentration-effect curve was fitted with GraphPad Prism 8 software, and the IC50 of the compound concentration was calculated.

[2] = In vivo pharmacokinetic evaluation in mice; details: C57BL6 mice; for Peak concentration Cmax: plasma
Source text: 2. In Vivo Pharmacokinetic Evaluation in Mice
To detect pharmacokinetic parameters of the compounds of the present disclosure in C57BL6 mice
The vehicle used in the experiment was: DMSO:Solutol:PBS=5%:25%:70% (v/v/v). Preparation method: The required compound was weighed accurately, added with a certain volume of DMSO in a certain proportion, vortex-mixed until completely dissolved, then added successively with Solutol and PBS according to the above proportion, and mixed well. The vehicles used in the intravenous (iv) administration group and oral (po) administration group were the same vehicles in the experiment. The intravenous dose was 1 mpk and the oral dose was 2 mpk. Experimental blood collection time points: IV group: 0.083, 0.25, 0.5, 1, 2, 4, 7, 24 h. PO group: 200 μL of whole blood was collected from jugular vein at each time point of 0.25, 0.5, 1, 2, 4, 7 and 24 h, anticoagulated with EDTA-K2, and immediately centrifuged at 4000 rpm for 5 minutes at 4° C. The supernatant was taken and the samples were frozen and stored in a refrigerator at −80° C. Processing of plasma samples: The sample was precipitated with ACN/MeOH (1:1, v/v) precipitant containing internal standard, then centrifuged at 14000 rpm for 5 minutes. The supernatant was taken into LC-MS/MS (AB Triple Quard 5500) for analysis to obtain plasma concentrations, and parameters were calculated by the non-compartmental model of Winnolin 8.1 version.

[3] = intragastric administration group po, 2 mpk
[4] = intravenous injection group iv, 1 mpk

Chain of recombinant human Vanin-1 (O95497 22-513): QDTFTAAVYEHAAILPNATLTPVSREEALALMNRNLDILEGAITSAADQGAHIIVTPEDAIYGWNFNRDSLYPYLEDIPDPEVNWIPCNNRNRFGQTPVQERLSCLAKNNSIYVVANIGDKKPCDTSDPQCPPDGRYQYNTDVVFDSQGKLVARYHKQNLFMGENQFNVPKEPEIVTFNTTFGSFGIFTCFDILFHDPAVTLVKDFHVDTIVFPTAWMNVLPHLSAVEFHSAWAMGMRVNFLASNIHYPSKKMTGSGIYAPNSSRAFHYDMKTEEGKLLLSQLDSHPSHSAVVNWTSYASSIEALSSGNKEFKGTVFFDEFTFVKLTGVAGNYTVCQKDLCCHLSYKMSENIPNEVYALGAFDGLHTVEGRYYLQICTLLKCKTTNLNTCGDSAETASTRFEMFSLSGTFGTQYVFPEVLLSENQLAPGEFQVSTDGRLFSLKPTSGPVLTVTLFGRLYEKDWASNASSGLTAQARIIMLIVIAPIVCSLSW

SMILES: O=C(c1cnc(NC2CCc3ncccc32)nc1)N1CCC2(CCOCC2)C1 (centres unmarked) [Compound 2]
- IC50 [1]: 8.9 nM

SMILES: CCC1(CC)CCN(C(=O)c2cnc(N[C@@H]3CCc4ncccc43)nc2)C1 [Compound 13]
- IC50 [1]: 4.2 nM

SMILES: Cc1ccc2c(n1)CCC2Nc1ncc(C(=O)N2CCC3(CCOCC3)C2)cn1 (centres unmarked) [Compound 19]
- IC50 [1]: 2.9 nM
- Area under the curve AUC0-7h [2, 3]: 1459.29 ng·h/mL
- Clearance rate CL [2, 3]: 21.9452 mL/min/kg
- Distributed solvent Vd [2, 3]: 2.91 L/kg
- Half-life T1/2 [2, 3]: 1.52 h
- Peak concentration Cmax [2, 3]: 766.60 ng/mL

SMILES: Cc1cnc2c(c1)C(Nc1ncc(C(=O)N3CCC4(CCOCC4)C3)cn1)CC2 (centres unmarked) [Compound 21]
- IC50 [1]: 6.9 nM

SMILES: CCC(=O)N(C)C1CCN(C(=O)c2cnc(N[C@@H]3CCc4ncccc43)nc2)C1 (some centres unmarked) [Compound 26]
- IC50 [1]: 2 nM

The next molecules have a lower IC50 [1] than those just listed; values first:

- IC50 [1]: 1.7 nM
SMILES: O=C(c1cnc(NC2CCc3ncc(Br)cc32)nc1)N1CCC2(CCOCC2)C1 (centres unmarked) [Compound 23]

- IC50 [1]: 0.6 nM
- Area under the curve AUC0-7h [2, 3]: 684.31 ng·h/mL
- Clearance rate CL [2, 3]: 48.6622 mL/min/kg
- Distributed solvent Vd [2, 3]: 4.55 L/kg
- Half-life T1/2 [2, 3]: 1.05 h
- Peak concentration Cmax [2, 3]: 539.37 ng/mL
- Area under the curve AUC0-7h [2, 4]: 557.60 ng·h/mL
- Clearance rate CL [2, 4]: 33.857 mL/min/kg
- Distributed solvent Vd [2, 4]: 2.60 L/kg
- Half-life T1/2 [2, 4]: 0.93 h
- Peak concentration Cmax [2, 4]: 742.33 ng/mL
- Bioavailability F % ([2]; po 2 mpk vs iv 1 mpk): 61.4%
SMILES: CC(=O)N(C)C1CCN(C(=O)c2cnc(N[C@@H]3CCc4ncccc43)nc2)C1 (some centres unmarked) [Compound 17]

Source: patent US20240083873A1, “PYRIMIDINE CARBOXAMIDE COMPOUND AND APPLICATION THEREOF” (SHANGHAI MEIYUE BIOTECH DEVELOPMENT CO., LTD, priority 2020, published 2024)
